Measured values: ChEMBL document CHEMBL3871263, “Arylthiosemicarbazones as antileishmanial agents” (Eur J Med Chem, 2016)

Tests used:
Leishmania donovani = experiment: Antileishmanial activity against intracellular amastigote stage of Leishmania donovani MHOM/ET/67/HU3 infected in human THP1 cells assessed as parasite growth measured after 72 hrs by luciferase reporter gene assay; format: functional, cell-based; conditions: MHOM/ET/67/HU3, THP-1, 72 h
[1] = Cytotoxicity against human THP1 cells assessed as reduction in cell growth measured after 72 hrs by MTT assay; format: toxicity, cell-based, THP-1
[2] = Cytotoxicity against human MRC5 cells assessed as reduction in cell growth measured after 72 hrs by MTT assay; format: toxicity, cell-based
[3] = Selectivity index, ratio of EC50 for human MRC5 cells to EC50 for intracellular Leishmania donovani MHOM/ET/67/HU3 amastigotes; format: toxicity, cell-based; conditions: read-out: Ratio EC50

Cn1cc(/C=N/NC(N)=S)c2ccccc21
EC50 (Leishmania donovani): > 10 µM | EC50 at 72 h [1]: > 200 µM | EC50 at 72 h [2]: > 200 µM

Cn1ccc2cc(/C=N/NC(N)=S)ccc21
EC50 (Leishmania donovani): > 10 µM | EC50 at 72 h [1]: > 200 µM | EC50 at 72 h [2]: > 200 µM

CN(C)c1ccc(/C=N/N=C(/N)S)c2ccccc12
EC50 (Leishmania donovani): 6.5 µM | EC50 at 72 h [1]: > 200 µM | EC50 at 72 h [2]: > 200 µM | selectivity ratio [3]: > 30

CCCCOc1ccc2cc(/C=N/NC(N)=S)ccc2c1
EC50 (Leishmania donovani): 1.27 µM | EC50 at 72 h [1]: 36 µM | EC50 at 72 h [2]: 43 µM | selectivity ratio [3]: 33.2

NC(=S)N/N=C/c1ccc(F)c2ccccc12
EC50 (Leishmania donovani): 0.8 µM | EC50 at 72 h [1]: 39 µM | EC50 at 72 h [2]: > 200 µM | selectivity ratio [3]: > 250

COCOc1c(/C=N/NC(N)=S)ccc2ccccc12
EC50 (Leishmania donovani): 6.8 µM | EC50 at 72 h [1]: 56 µM | EC50 at 72 h [2]: 119 µM | selectivity ratio [3]: 17.5

COCOc1ccc2cc(/C=N/NC(N)=S)ccc2c1
EC50 (Leishmania donovani): > 10 µM | EC50 at 72 h [1]: > 200 µM | EC50 at 72 h [2]: 175 µM

NC(=S)N/N=C/c1cc2ccccc2c2ccccc12
EC50 (Leishmania donovani): > 10 µM | EC50 at 72 h [1]: > 200 µM | EC50 at 72 h [2]: 192 µM

NC(=S)N/N=C/c1c(OCC2CCCCC2)ccc2ccccc12
EC50 (Leishmania donovani): > 10 µM | EC50 at 72 h [1]: 28 µM | EC50 at 72 h [2]: 33 µM

CCOc1ccc(/C=N/NC(N)=S)c2ccccc12
EC50 (Leishmania donovani): 7.2 µM | EC50 at 72 h [1]: > 200 µM | EC50 at 72 h [2]: > 200 µM | selectivity ratio [3]: > 30

NC(=S)N/N=C/c1cn(CCCc2ccccc2)c2ccccc12
EC50 (Leishmania donovani): 4.1 µM | EC50 at 72 h [1]: 30 µM | EC50 at 72 h [2]: > 200 µM | selectivity ratio [3]: > 50

CCOc1ccc2cc(/C=N/NC(N)=S)ccc2c1
EC50 (Leishmania donovani): 5.4 µM | EC50 at 72 h [1]: 30 µM | EC50 at 72 h [2]: > 200 µM | selectivity ratio [3]: > 40

NC(=S)N/N=C/c1cn(CC2CCCCC2)c2ccccc12
EC50 (Leishmania donovani): 9 µM | EC50 at 72 h [1]: 27 µM | EC50 at 72 h [2]: 26 µM | selectivity ratio [3]: 2.8

NC(=S)N/N=C/c1ccc(OCC2CCCCC2)c2ccccc12
EC50 (Leishmania donovani): 2.2 µM | EC50 at 72 h [1]: 150 µM | EC50 at 72 h [2]: 28.9 µM | selectivity ratio [3]: 13.1

Cc1ccc(/C=N/NC(N)=S)c2ccccc12
EC50 (Leishmania donovani): 1.2 µM | EC50 at 72 h [1]: 32 µM | EC50 at 72 h [2]: 37 µM | selectivity ratio [3]: 30.4

NC(=S)N/N=C/c1ccc2ccccc2c1OCc1ccccc1
EC50 (Leishmania donovani): 2.6 µM | EC50 at 72 h [1]: 28 µM | EC50 at 72 h [2]: 25 µM | selectivity ratio [3]: 9.7

CCCCOc1c(/C=N/NC(N)=S)ccc2ccccc12
EC50 (Leishmania donovani): 1.4 µM | EC50 at 72 h [1]: > 200 µM | EC50 at 72 h [2]: 86 µM | selectivity ratio [3]: 61.5

COc1ccc2cc(/C=N/NC(N)=S)ccc2c1
EC50 (Leishmania donovani): 9.3 µM | EC50 at 72 h [1]: 108 µM | EC50 at 72 h [2]: > 250 µM | selectivity ratio [3]: > 20

NC(=S)N/N=C/c1cn(Cc2ccccc2)c2ccccc12
EC50 (Leishmania donovani): > 10 µM | EC50 at 72 h [1]: 28 µM | EC50 at 72 h [2]: 175 µM

COc1ccc2c(OC)ccc(/C=N/NC(N)=S)c2c1
EC50 (Leishmania donovani): 9 µM | EC50 at 72 h [1]: > 200 µM | EC50 at 72 h [2]: > 200 µM | selectivity ratio [3]: > 20

NC(=S)N/N=C/c1ccc(OCc2ccccc2)c2ccccc12
EC50 (Leishmania donovani): 1.9 µM | EC50 at 72 h [1]: 27 µM | EC50 at 72 h [2]: 29 µM | selectivity ratio [3]: 15.2

NC(=S)N/N=C/c1c2ccccc2cc2ccccc12
EC50 (Leishmania donovani): 5.3 µM | EC50 at 72 h [1]: 67 µM | EC50 at 72 h [2]: 45 µM | selectivity ratio [3]: 8.5

COCOc1ccc(/C=N/NC(N)=S)c2ccccc12
EC50 (Leishmania donovani): > 10 µM | EC50 at 72 h [1]: > 200 µM | EC50 at 72 h [2]: 126 µM

NC(=S)N/N=C/c1ccc2cc(OCc3ccccc3)ccc2c1
EC50 (Leishmania donovani): 1.2 µM | EC50 at 72 h [1]: 28 µM | EC50 at 72 h [2]: 27 µM | selectivity ratio [3]: 22.6

COc1ccc(/C=N/NC(N)=S)c2ccccc12
EC50 (Leishmania donovani): 5 µM | EC50 at 72 h [1]: 47 µM | EC50 at 72 h [2]: 42 µM | selectivity ratio [3]: 8.4

NC(=S)N/N=C/c1c(OCc2ccccc2)ccc2ccccc12
EC50 (Leishmania donovani): 8.1 µM | EC50 at 72 h [1]: 39 µM | EC50 at 72 h [2]: 30 µM | selectivity ratio [3]: 3.7

Cc1cccc(Cn2cc(/C=N/NC(N)=S)c3ccccc32)c1
EC50 (Leishmania donovani): 4.3 µM | EC50 at 72 h [1]: 32 µM | EC50 at 72 h [2]: 23 µM | selectivity ratio [3]: 5.3

CCCCOc1ccc(/C=N/NC(N)=S)c2ccccc12
EC50 (Leishmania donovani): 2.1 µM | EC50 at 72 h [1]: > 200 µM | EC50 at 72 h [2]: 41 µM | selectivity ratio [3]: 19.5

NC(=S)N/N=C/c1ccc(-c2ccc(/C=N/NC(N)=S)cc2)cc1
EC50 (Leishmania donovani): > 10 µM | EC50 at 72 h [1]: > 200 µM | EC50 at 72 h [2]: > 200 µM

CCCCn1cc(/C=N/NC(N)=S)c2cccc(C)c21
EC50 (Leishmania donovani): 9 µM | EC50 at 72 h [1]: > 200 µM | EC50 at 72 h [2]: 31 µM | selectivity ratio [3]: 3.4

Cn1c(/C=N/N=C(/N)S)cc2ccccc21
EC50 (Leishmania donovani): > 10 µM | EC50 at 72 h [1]: > 200 µM | EC50 at 72 h [2]: > 200 µM

COc1ccc2ccccc2c1/C=N/N=C(/N)S
EC50 (Leishmania donovani): > 10 µM | EC50 at 72 h [1]: 109 µM | EC50 at 72 h [2]: 126 µM

C[C@@H]1[C@H](O)[C@@H](C)/C=C/C=C/C=C/C=C/C=C/C=C/C=C/[C@H](O[C@@H]2O[C@H](C)[C@@H](O)[C@H](N)[C@@H]2O)C[C@@H]2O[C@](O)(C[C@@H](O)C[C@@H](O)[C@H](O)CC[C@@H](O)C[C@@H](O)CC(=O)O[C@H]1C)C[C@H](O)[C@H]2C(=O)O [AMPHOTERICIN B]
EC50 at 72 h [1]: 38 µM | EC50 at 72 h [2]: 23 µM
